The text below walks through data of US20260325489A1, “PHARMACEUTICAL COMPOSITIONS COMPRISING 5-METHOXY-N,N-DIMETHYLTRYPTAMINE (5-MEO-DMT)” (Beckley Psytech Limited, priority 2023, published 2026).

The nature of data set [1]: thermal decomposition properties of salt forms (TGA). The class given is physicochemical. An excerpt: The thermal decomposition properties of a range of salt forms of 5-MeO-DMT has been investigated and is summarised in the report below: […]
The nature of data set [2]: physical stability / hygroscopicity of salts and formulations.
The nature of data set [3]: Phase 1 single ascending dose study of intranasal 5-MeO-DMT HCl in healthy subjects. In kind it is in vivo. The conditions noted are these: human plasma. An excerpt: (§1) The applicant has funded double-blind, randomised, Phase 1, single ascending dose studies to evaluate the safety, tolerability and pharmacokinetic profile of intranasal 5-MeO-DMT hydrochloride and intranasal 5-MeO-DMT benzoate in healthy subjects. […] It is desirable that a compound for use in treatment has dose-proportional pharmacokinetics, for example, to facilitate dose and dose regimen adjustment in patients. In an embodiment, there is provided a salt of 5-MeO-DMT with dose-proportional pharmacokinetics, optionally for use in the methods disclosed herein. In an embodiment, the salt of 5-MeO-DMT with dose-proportional pharmacokinetics is the benzoate or HBr salt, optionally the benzoate salt. A double-blind, randomised, Phase 1, single ascending dose study to evaluate the safety, tolerability and pharmacokinetic profile of a liquid intranasal 5-MeO-DMT HCl (5-MeO-DMT HCl, HPMC, water for injection (WFI) and a sodium hydroxide solution to adjust pH) pharmaceutical composition/formulation in healthy subjects was performed.

The format of data set [4] is in vivo, human (healthy subjects).
Source text: as §1
A double-blind, randomised, Phase 1, single ascending dose study to evaluate the safety, tolerability and pharmacokinetic profile of intranasal 5-MeO-DMT benzoate in healthy subjects was performed.

Data set [5] can be described thus: dissolution rate (UV-fibre optic dissolution apparatus, simulated nasal fluid). In kind it is physicochemical. The procedure:
The dissolution rate of SDD was determined using a method comprising the use of a UV-fibre optic-based dissolution apparatus (one such suitable device is the Rainbow® Dynamic Dissolution Monitor by Pion Inc) and simulated nasal fluid. The simulated nasal fluid comprises 7.45 g/L NaCl, 1.29 g/L KCl, 0.32 g/L CaCl2)×2H2O and deionised water.

Data set [6] can be described thus: solid state by XRPD and DSC. In kind it is physicochemical. The conditions noted are these: XRPD and/or DSC, after spray drying or lyophilisation. The procedure:
Unless otherwise stated herein all X-ray powder diffractograms (XRPD) were generated using an X-ray wavelength of 1.5406 Å; all modulated differential scanning calorimetry (DSC) thermograms were generated using a 2 °C/min heating rate.

Entries after “also recorded” stand apart in the source; their conditions may differ.

Turning to `O=C(O)C(O)C(O)C(=O)O` (centres unmarked) [Tartrate], the decomposition temperature entry in data set [1] was “Melt ~140 °C, decomp ~200 °C”.

Take `Br.COc1ccc2[nH]cc(CCN(C)C)c2c1` [5-MeO-DMT hydrobromide]: the “temperature at which gross decomposition starts” value in data set [1] was “Melt 149 °C, gross decomp starts 220 °C”. In addition, the “physical / state stability, in words” value in data set [2] is “stable amorphous dispersion without the need for any additional drying step post spray drying; also recorded: state-stable when stored at above the temperature range 2-8 °C”.

Take `COc1ccc2[nH]cc(CCN(C)C)c2c1.Cl` [5-MeO-DMT HCl]: the mean concentration profiles result in data set [3] (5 mg, 8 mg, 10 mg, 11 mg and 14 mg) is “substantially similar”. For the same compound, the dose-proportional pharmacokinetics result in data set [3] (liquid intranasal HCl formulation, 5, 8, 10, 11 and 14 mg) is reported as “does not display dose-proportional pharmacokinetics”. In addition, in data set [2], the “stability profile, in words” value was “issues relating to stability, discoloration and a reduction in desirable pharmacokinetic properties”.

As for `CN(C)CCc1c[nH]c2ccc(O)cc12` [Bufotenin], in data set [4] (6 mg dose level of intranasal 5-MeO-DMT benzoate, after the 16 minutes time point), the “detection of O-demethylated metabolite (Bufotenin)” value is recorded as “only detected at very low levels”.

For the compound Oxalate, the mass loss result in data set [1] is “Melts 176 °C, full mass loss”.

For Tosylate, in data set [1], the “temperature at which gross decomposition starts” value was “Melt 110 °C, gross decomp starts 280 °C”.

On to `C1=Cc2cccc(OC[C@H]3CNCCO3)c2C1.O=S(=O)(O)c1ccccc1` [Benzenesulfonate], for which, in data set [1], the “temperature at which gross decomposition starts” value was “Melt 76 °C, gross decomp starts 280 °C”.

On to Phosphate, for which the decomposition temperature entry in data set [1] was “Decomp around 200 °C”.

As for Fumarate, in data set [1], the decomposition temperature result was “Decomp around 200 °C”.

Consider `COc1ccc2[nH]cc(CCN(C)C)c2c1.O=C(O)c1ccccc1` [5-MeO-DMT benzoate], for which the “mean Cmax” value in data set [4] (intranasal, 12 mg dosage, human plasma) stood at 29 ng/mL. The “mean Tmax” value in data set [4] (intranasal, human plasma) was 9.5 min. The “dissolution rate / profile, in words” value in data set [5] was “almost instantaneous dissolution rate; also recorded: a reduced dissolution rate as compared to the amorphous form of 5-MeO-DMT salts”. In data set [6], the “solid state of the dispersion produced” value is “amorphous dispersion with no sign of the crystalline benzoate salt”. In data set [1], the mass loss entry is “full mass loss” and the “temperature at which decomposition starts” value is around 220 °C. In data set [2], the “physical / state stability, in words” value is “storage at 2-8° C., and protection from moisture, prevents recrystallisation and aggregation; also recorded: stable crystalline spray dried dispersion particle with no respirable API fines or significant aggregation”; the “stability profile, in words” value was “good stability profile”.

Consider `O=C(O)CC(O)C(=O)O` (centres unmarked) [Malate], for which the “temperature at which gross decomposition starts” value in data set [1] was “Melt 100 °C, gross decomp starts 250 °C”.

On to Glycolate, for which the “temperature at which gross decomposition starts” value in data set [1] is “Melt 95 °C, gross decomp starts 170 °C”.

For the compound `O=C(O)CCC(=O)C(=O)O` [Ketoglutarate], the “temperature at which gross decomposition starts” value in data set [1] was “Melt 85 °C, gross decomp starts 170 °C”.
